Test results: US7799810B2, “Organic compounds” (Novartis AG, priority 2006, dated 2010)

How the values were obtained:
[1] = test system: PI3K α, β or γ isoform; assay: Selectivity for the δ isoform by corresponding assay using the corresponding PI3K isoform; assay type: biochemical; conditions: δ versus α
Protocol: PI3K delta enzyme assay based on Scintillation Proximity Assay (SPA) technology. Human PI3K delta is expressed as a recombinant protein in insect cells. PI3K delta activity is assayed by measuring the phosphorylation of phosphatidylinositol (PI) using a scintillation proximity assay. Briefly, the kinase reaction is performed in a final volume of 50 μl/well. The final concentrations of ATP and PI in the assay are 5 μM and 6 μg/ml, respectively. The reaction is started by the addition of PI3K delta and terminated by the addition of 50 μl Wheatgerm agglutinin SPA beads after 90 minutes of incubation at room temperature.

[2] = biological target: T1, Human PI3K delta (Homo sapiens, UniProt O00329); assay: Cellular PI3K delta assay (Akt phosphorylation in transfected Rat-1 cells); assay type: cell-based; conditions: Rat-1 cells transfected with human PI3K delta CaaX construct, phospho Akt ELISA; read-out: IC50 PI3K delta-dependent Akt phosphorylation
T1 construct: fused on or other part: CaaX box (isoprenylation / membrane-targeting signal) added at the C-terminal end
T1 sequence (O00329 1-1044): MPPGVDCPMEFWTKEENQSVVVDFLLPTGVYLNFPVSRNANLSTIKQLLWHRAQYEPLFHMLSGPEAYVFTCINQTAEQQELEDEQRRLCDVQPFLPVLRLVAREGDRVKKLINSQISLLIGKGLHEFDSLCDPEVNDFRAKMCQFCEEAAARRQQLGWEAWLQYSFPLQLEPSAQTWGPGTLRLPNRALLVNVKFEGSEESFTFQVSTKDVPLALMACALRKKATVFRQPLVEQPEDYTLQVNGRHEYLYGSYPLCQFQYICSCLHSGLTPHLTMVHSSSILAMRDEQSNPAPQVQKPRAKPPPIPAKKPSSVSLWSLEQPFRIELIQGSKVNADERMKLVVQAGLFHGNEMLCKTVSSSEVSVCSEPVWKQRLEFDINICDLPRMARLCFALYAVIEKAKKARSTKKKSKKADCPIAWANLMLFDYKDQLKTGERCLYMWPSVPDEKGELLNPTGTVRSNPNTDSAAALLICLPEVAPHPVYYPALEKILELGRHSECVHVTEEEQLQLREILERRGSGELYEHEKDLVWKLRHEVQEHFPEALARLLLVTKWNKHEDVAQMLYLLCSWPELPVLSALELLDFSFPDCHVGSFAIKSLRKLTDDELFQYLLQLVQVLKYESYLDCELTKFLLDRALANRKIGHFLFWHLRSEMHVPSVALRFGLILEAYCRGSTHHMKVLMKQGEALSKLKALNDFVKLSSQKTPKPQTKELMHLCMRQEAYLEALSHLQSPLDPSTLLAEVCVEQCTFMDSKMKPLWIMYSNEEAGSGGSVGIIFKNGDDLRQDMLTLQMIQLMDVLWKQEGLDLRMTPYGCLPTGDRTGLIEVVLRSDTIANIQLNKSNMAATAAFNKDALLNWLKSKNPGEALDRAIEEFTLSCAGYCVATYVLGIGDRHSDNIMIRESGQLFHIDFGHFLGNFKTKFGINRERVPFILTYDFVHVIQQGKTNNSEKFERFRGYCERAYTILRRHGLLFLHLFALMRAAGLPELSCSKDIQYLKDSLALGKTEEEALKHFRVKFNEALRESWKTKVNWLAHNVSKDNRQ
Excerpt: Cellular PI3K delta assay. Rat-1 cells are transiently transfected with a human PI3K delta construct (pcDNA3 PIK3 delta containing a CaaX box at the C-terminal end) using the FUGENE transfection kit. The CaaX box signals for the attachment of an isoprenoid moiety which activates PI3K delta by targeting it to intracellular membranes/the plasma membrane. Subsequent, PI3K delta-dependent Akt phosphorylation is quantified in presence and absence of compounds to be tested using the phospho Akt ELISA kit from R&D Systems.

[3] = test system: spleen cells of nu/nu Balb/c mice; assay: B cell proliferation assay (anti-IgM stimulated spleen cells); assay type: cell-based; conditions: anti-mouse IgM 5 μg/ml, 3 days, [3H] thymidine incorporation
Protocol: B cell proliferation assay. A spleen cell suspension of nu/nu Balb/c mice is prepared and adjusted to 2×10^6 cells/ml in complete Iscoves Medium followed by the addition of 10 μg/ml monoclonal anti-mouse IgM antibody (clone b-7-6). Compounds to be rested are dissolved in DMSO at 10 mM and diluted in complete Iscoves Medium. […] Plates are incubated for 3 days at 37° C. and 5% CO2. Cell proliferation is measured by incorporation of [^3H] thymidine following a 16 hours pulse.

[4] = test system: spleen cells from CBA and BALB/c mice; assay: Mixed lymphocyte reaction (two-way MLR); assay type: cell-based; conditions: Mus musculus, four days of incubation, 3H-thymidine incorporation
Protocol: Mixed lymphocyte reaction (MLR). A two-way MLR is performed according to standard procedures. Briefly, spleen cells from CBA and BALB/c mice (1.6×10^5 cells from each strain per well in flat bottom tissue culture microtiter plates, 3.2×10^5 in total) are incubated in RPMI medium containing 10% fetal calf serum, 100 U/ml penicillin, 100 μg/ml streptomycin, 50 μM 2-mercaptoethanol and serially diluted compounds to be tested. After four days of incubation 1 μCi [^3H] thymidine is added to the cultures. Cells are harvested after an additional five-hour incubation period, and incorporated ^3H-thymidine is determined according to standard procedures. […] In this assay, the compounds of formula I have ICsovalues ranging from 20 nM to 200 nM.

Question: Which results are given for Cc1cc(NC(=O)CCNC(=O)Nc2nc(C)c(-c3ccc(-n4cccn4)cc3)s2)no1 [Example 2, N-(5-Methyl-isoxazol-3-yl)-3-{3-[4-methyl-5-(4-pyrazol-1-yl-phenyl)-thiazol-2-yl]-ureido}-propionamide]?
Answer: selectivity for the δ isoform over the α, β or γ isoform (ratio of IC50 values) [1]: at least 10 fold; IC50 [2]: 22 nM; IC50 [3]: 15 nM; IC50 [4]: 26 nM
